Data reported in paper PMC12362615, “Design, Synthesis, and Cellular Characterization of a New Class of IPMK Kinase Inhibitors” (Journal of Medicinal Chemistry, 2025).
Entries after “also recorded” stand apart in the source; their conditions may differ.

Columns and labels:
[1] = tested on: SF-1 target genes in HEK293 cells bearing tetracycline-inducible SF-1; assay: RT-qPCR analysis of SF-1 target genes; assay type: cell-based, human; parameters: key to relative NR0B2 expression vs DMSO + TET control / relative StAR expression vs DMSO + TET control: ns = not significant; *p<0.05; ****p<0.0001; conditions: for relative CYP11A1 expression vs DMSO + TET control / relative NR0B2 expression vs DMSO + TET control / relative StAR expression vs DMSO + TET control: 24 h, HEK293 Tet-inducible SF-1
[2] = tested on: inositol phosphate levels in U251-MG cells; assay: 3H-inositol metabolic labeling and HPLC of inositol phosphates; assay type: cell-based, human; conditions: 10 μM, vs DMSO
Method: Human U251-MG glioblastoma cells (ECACC 09063001) were grown in DMEM supplemented with 10% FBS. The medium was changed to inositol-free DMEM, and cells were inositol-starved for 1–3 days. Cells were maintained in inositol-free DMEM medium, treated with the indicated inhibitor or DMSO for 1–2.5 h, and supplemented with 100 μCi ^3H-inositol (PerkinElmer) for 48 or 72 h, as indicated on each figure. Cells were then washed in PBS and lysed in 200 μL HCl (0.5 M), 250 μL of MeOH was added to each well of a 6-well plate (approximately 10^6 cells), followed by 125 μL of 2 M KCl. Lysates were scraped and sonicated on ice for three 1 min cycles. Inositol phosphate (IP) extracts were cleaned of lipids by adding 250 μL of CHCl3, vortexing and centrifuging samples for 2 min at 5000 rpm to separate upper aqueous and lower organic phases, upper phase contains soluble IPs. This extraction was repeated once. Samples were dried in a SpeedVac, resuspended in 10 mM ammonium phosphate (pH= 3.5), and filtered. HPLC separation and detection of the inositol species on the upper phase used a Partisphere SAX 4.6 mm × 250 mm column, eluted with 10 mM (buffer A) to 1.3 M (buffer B) ammonium phosphate (pH = 3.8) and online flow scintillation analyzer (FSA, PerkinElmer). Elution of [^32P]-labeled IP4, IP5, and IP6 standards confirmed the identity of each peak off the HPLC. Quantification represents three biologically independent metabolic labeling samples with error representing the standard deviation of the mean.

[3] = biological target: T1, purified recombinant human IP6K2 kinase domain (Homo sapiens, UniProt Q9UHH9); assay: IP6K2 IC50 determination, malachite green Pi release assay; assay type: biochemical
T1 sequence (Q9UHH9 1-426): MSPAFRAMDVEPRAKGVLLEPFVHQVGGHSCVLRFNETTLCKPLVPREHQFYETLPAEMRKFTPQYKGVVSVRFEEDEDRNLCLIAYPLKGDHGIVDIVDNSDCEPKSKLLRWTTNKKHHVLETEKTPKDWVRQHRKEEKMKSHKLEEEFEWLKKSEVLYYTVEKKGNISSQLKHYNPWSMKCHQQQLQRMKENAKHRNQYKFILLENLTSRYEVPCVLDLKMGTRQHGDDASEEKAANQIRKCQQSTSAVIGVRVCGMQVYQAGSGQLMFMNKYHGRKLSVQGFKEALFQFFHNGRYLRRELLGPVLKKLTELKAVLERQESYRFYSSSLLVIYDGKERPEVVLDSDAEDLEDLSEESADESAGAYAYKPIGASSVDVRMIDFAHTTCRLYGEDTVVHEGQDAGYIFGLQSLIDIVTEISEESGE
Method: IP6K2 IC50 values were determined using the purified recombinant human IP6K2 kinase domain expressed in a 384-well clear polystyrene plate (VWR 82051-264). This human IP6K2 kinase domain (100 nM) was used at 37 °C in 50 μL reaction mixtures containing 5.0 μM human Dipp1, 50 mM Tris (pH 6.9), 10 mM MgCl2, 0.02% Triton X-100, 25 μM InsP6, and 50 μM ATP for 30 min. Pi release was determined with a malachite green colorimetric assay. Reactions were quenched by the addition of 12.5 μL of phosphate detection reagent (MAK3071KT, Sigma-Aldrich). Pi release was quantified from the absorbance at 620 nm by using appropriate standards.

c1cc(-c2onc3ccc(-c4nnn[nH]4)cc23)cc(C2CCN(C3CCC3)CC2)c1 [Compound 14, 3-(3-(1-Cyclobutylpiperidin-4-yl)phenyl)-5-(1H-tetrazol-5-yl)benzo[c]isoxazole]
relative CYP11A1 expression vs DMSO + TET control ([1]; 10 μM): * (*p<0.05)
relative NR0B2 expression vs DMSO + TET control ([1]; 10 μM): ns
relative StAR expression vs DMSO + TET control ([1]; 10 μM): ns
relative CYP11A1 expression vs DMSO + TET control ([1]; 30 μM): * (*p<0.05)
relative NR0B2 expression vs DMSO + TET control ([1]; 30 μM): * (*p<0.05)
relative StAR expression vs DMSO + TET control ([1]; 30 μM): * (*p<0.05)
relative CYP11A1 expression vs DMSO + TET control ([1]; 50 μM): **** (****p<0.0001)
relative NR0B2 expression vs DMSO + TET control ([1]; 50 μM): **** (****p<0.0001)
relative StAR expression vs DMSO + TET control ([1]; 50 μM): **** (****p<0.0001)
regulation of nuclear receptor SF-1 target genes ([1]; HEK293 cells with Tet-inducible SF-1, 24 h): can regulate these target genes; also recorded: able to regulate nuclear receptor SF-1 target genes; also recorded: did detect changes
decrease of InsP5 levels ([2]; 48 h): 50%
increase of InsP4 levels ([2]; 48 h): about 50%
level of InsP6 ([2]; 48 h): no change
IP6 levels ([2]; 72 h): did not change; also recorded: does not decrease
InsP4 levels ([2]; 72 h): rose slightly
InsP7 levels ([2]; 72 h): did not change; also recorded: does not decrease
IP6K2/IPMK ([3]; Table S1, ratio of IC50 values): 12
selectivity for IPMK over IP6K2 ([3]; from Table S1): 12 fold
IC50 ([3]; supplementary csv): 374 ± 159 nM
